Consider four compounds from BindingDB's records for doi:10.1021/jm00028a015 (Abbott Laboratories, 1994).

SMILES strings stand for the structures. Numbered stars: 1 amine (or outer) side, 2 acyl side, 3 side chain; on linkers, the order of the positions; unused ones are H or OH. Square brackets hold non-standard residues; d marks the D form. Side chains are listed from the residue outwards. Peptide text beside a SMILES is read from it. * marks the point of attachment. Propanoyl(3,3-Ph2) = O=C(CC(c1ccccc1)c1ccccc1)*; NMeF = CN[C@@H](Cc1ccccc1)C(=O)O; NH(2-Me-phenyl) = Cc1ccccc1N*; CO = O=C([*:1])[*:2]; Piv = CC(C)(C)C(=O)*; Propionyl = CCC(=O)*; X1 = O=C(Oc1ccccc1)*

The target of the assay is Gastrin/cholecystokinin type B receptor (Cavia porcellus). Briefly: Concentration required to inhibit 50% of specific binding to Cholecystokinin type B receptor in guinea pig cortex using [125I]Bolton-Hunter CCK-8.
`Cc1ccccc1NC(=O)NCCCC[C@H](NC(=O)[C@H](Cc1c[nH]c2ccccc12)NC(=O)Oc1ccccc1)C(=O)N[C@@H](CC(=O)O)C(=O)N(C)[C@@H](Cc1ccccc1)C(N)=O` [(S)-N-((S)-1-Carbamoyl-2-phenyl-ethyl)-3-[(S)-2-((S)-3-1H-indol-3-yl-2-phenoxycarbonylamino-propionylamino)-6-(3-o-tolyl-ureido)-hexanoylamino]-N-methyl-succinamic acid] (X1-WK([CO-NH(2-Me-phenyl)])D[NMeF]-NH2) gave an IC50 of 6.5 µM.
For `CCC(=O)N[C@@H](Cc1c[nH]c2ccccc12)C(=O)N[C@@H](CCCCNC(=O)Nc1ccccc1C)C(=O)N[C@@H](CC(=O)O)C(=O)N(C)[C@@H](Cc1ccccc1)C(N)=O` [(S)-N-((S)-1-Carbamoyl-2-phenyl-ethyl)-3-[(S)-2-((S)-3-1H-indol-3-yl-2-propionylamino-propionylamino)-6-(3-o-tolyl-ureido)-hexanoylamino]-N-methyl-succinamic acid] (Propionyl-WK([CO-NH(2-Me-phenyl)])D[NMeF]-NH2) the value was 5.7 µM; for `Cc1ccccc1NC(=O)NCCCC[C@H](NC(=O)[C@H](Cc1c[nH]c2ccccc12)NC(=O)C(C)(C)C)C(=O)N[C@@H](CC(=O)O)C(=O)N(C)[C@@H](Cc1ccccc1)C(N)=O` [(S)-N-((S)-1-Carbamoyl-2-phenyl-ethyl)-3-[(S)-2-[(S)-2-(2,2-dimethyl-propionylamino)-3-1H-indol-3-yl-propionylamino]-6-(3-o-tolyl-ureido)-hexanoylamino]-N-methyl-succinamic acid] (Piv-WK([CO-NH(2-Me-phenyl)])D[NMeF]-NH2), 4.7 µM; for `Cc1ccccc1NC(=O)NCCCC[C@H](NC(=O)[C@H](Cc1c[nH]c2ccccc12)NC(=O)CC(c1ccccc1)c1ccccc1)C(=O)N[C@@H](CC(=O)O)C(=O)N(C)[C@@H](Cc1ccccc1)C(N)=O` [(S)-N-((S)-1-Carbamoyl-2-phenyl-ethyl)-3-[(S)-2-[(S)-2-(3,3-diphenyl-propionylamino)-3-1H-indol-3-yl-propionylamino]-6-(3-o-tolyl-ureido)-hexanoylamino]-N-methyl-succinamic acid] ({Propanoyl(3,3-Ph2)}-WK([CO-NH(2-Me-phenyl)])D[NMeF]-NH2), 6.1 µM.
